Source: patent publication US10092648B2, “Selective glucagon-like-peptide-2 (GLP-2) analogues” (Zealand Pharma A/S, priority 2006, dated 2018)

Assays:
[1] = amino acid side-chain; defined by W. D. Stein 1967; cited from earlier work
hGLP-2 receptor [2] = molecular target: T1, hGLP-2 receptor (Homo sapiens, UniProt O95838); test: In vitro screening for agonism on the GLP-2 receptor recombinantly expressed in BHK-21 cells (CRE-luciferase reporter); format: cell-based; conditions: BHK21 cells transiently transfected with GLP-2 receptor and CRE-luciferase; 10 fM to 10 nM; read-out: pEC50 (converted)
T1 construct: expressed in transfected cells; host or cells: BHK-21 (C13) cells, transient transfection with Lipofectamine 2000
T1 sequence (O95838 1-553): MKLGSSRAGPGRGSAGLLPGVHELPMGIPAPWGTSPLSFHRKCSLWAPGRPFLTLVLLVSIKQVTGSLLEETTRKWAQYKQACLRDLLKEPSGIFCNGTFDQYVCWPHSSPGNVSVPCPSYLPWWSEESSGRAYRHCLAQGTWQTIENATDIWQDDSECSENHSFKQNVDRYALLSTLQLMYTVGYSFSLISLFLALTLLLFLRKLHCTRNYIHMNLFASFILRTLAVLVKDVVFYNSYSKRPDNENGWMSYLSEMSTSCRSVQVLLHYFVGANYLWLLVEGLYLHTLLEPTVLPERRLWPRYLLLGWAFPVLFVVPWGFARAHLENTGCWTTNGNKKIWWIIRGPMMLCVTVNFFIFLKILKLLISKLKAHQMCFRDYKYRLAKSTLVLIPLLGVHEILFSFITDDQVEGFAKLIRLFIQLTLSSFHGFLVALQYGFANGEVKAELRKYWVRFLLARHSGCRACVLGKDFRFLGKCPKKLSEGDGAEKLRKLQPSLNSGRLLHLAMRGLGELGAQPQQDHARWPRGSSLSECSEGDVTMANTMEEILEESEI
Experimental: The screening was done using BHK21 cells transiently transfected with GLP-2 receptor and the CRE-luciferase reporter gene construct. Dose-response curves and EC50 values were determined using seven concentrations from 10 fM to 10 nM and triplicate points for each concentration. Control peptide was used on all test plates. BHK-21 cells are seeded in 10 cm TC-Petri dishes and grown to 70-80% confluency. Subsequently, medium is changed to serum-free transfection medium. DNA (7.5 μg hGLP-2 receptor vector and 7.5 μg CRE-luciferase vector) and Lipofectamine 2000 are diluted in OptiMEM, combined, and added to the cells after 20-30 min. Cells are incubated in the incubator at 37° C., 5% CO2 for 4 hr, trypsinized, and reseeded at 35,000 cells per well in 96-well plates. Cells are incubated overnight in full growth medium in order to allow expression of the transgenes. […] Baseline activity is controled with stimulation buffer alone. These solutions are pre-warmed to 37° C. for 30 min. Cells are rinsed with pre-warmed (37° C.) stimulation buffer, and incubated with 100 μl of the pre-warmed peptide dilutions and control for 5 hr at 37° C., 5% CO2. The LucLite enzyme substrate/lysis buffer is prepared shortly before the end of the incubation. 100 μl LucLite substrate are added to each well, and light emission is counted on a suitable counter (e.g. Wallac VictorII). EC50 values are derived from the raw data by fitting with a four parameter logistic equation (Microcal Origin 5.0 or GraphPad 4).

male C57BL mice = test: In vivo stimulation of intestinal growth, 800 nmol/kg (Example 10); conditions: 800 nmol/kg s.c. once daily for 3 days; for Sensitivity index Si/Colon / Sensitivity index Stomach/Co: relative to 1559; for Colon: colon mass relative to BW, % vs. [Gly2]GLP-2; for SI (% vs. [Gly2]GLP-2: small intestine mass relative to BW, [Gly2]GLP-2 = 100%
Source text: Individual groups (n=6-10) of mice were given 800 nmol/kg of each compound, s.c, once daily for three consecutive days. For comparison purposes other groups of animals were given either an equimolar dose of [[…]]GLP-2 (ZP1559) or vehicle (phosphate buffered saline, pH 7.4) in the same dosing regimen Twenty-four hours after the last dose of compound had been given the mice were sacrificed and the small intestine (from the pylorus to the cecum) and the colon (intestine distal to cecum) was emptied and weighed. To correct for slight difference in body weight (BW), the organ mass of the small intestine (SI) and colon were expressed relative to BW. The non-selective reference compound [[…]]GLP-2 has been reported to stimulate gastrointestinal growth in both esophagus, stomach, small intestine and colon and to evaluate differences in growth pattern induced by compounds, the small intestine-colon sensitivity index of compound X was calculated as: […]

hGLP-2 receptor [3] = molecular target: T2, hGLP-2 receptor (human, UniProt O95838 1-553); test: cell-based or functional assay
T2 sequence (looked up): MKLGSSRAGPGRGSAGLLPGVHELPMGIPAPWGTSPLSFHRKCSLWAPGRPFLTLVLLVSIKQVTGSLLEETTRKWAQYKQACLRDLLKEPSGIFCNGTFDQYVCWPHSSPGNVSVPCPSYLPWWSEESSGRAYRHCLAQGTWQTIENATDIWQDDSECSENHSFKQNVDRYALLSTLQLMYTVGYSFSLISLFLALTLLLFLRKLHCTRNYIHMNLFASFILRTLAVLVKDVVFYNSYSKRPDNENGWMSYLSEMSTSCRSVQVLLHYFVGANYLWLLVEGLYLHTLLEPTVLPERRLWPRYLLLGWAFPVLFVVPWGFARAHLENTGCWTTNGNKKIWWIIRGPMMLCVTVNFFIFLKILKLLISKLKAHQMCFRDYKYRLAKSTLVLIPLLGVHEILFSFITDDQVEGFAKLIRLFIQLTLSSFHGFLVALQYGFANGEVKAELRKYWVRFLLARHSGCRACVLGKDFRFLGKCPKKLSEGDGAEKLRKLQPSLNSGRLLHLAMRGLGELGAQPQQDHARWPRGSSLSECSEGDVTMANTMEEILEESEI

NCC(=O)O [Gly]
HBP for the individual amino acids [1]: 0

N[C@@H](Cc1c[nH]cn1)C(=O)O [His]
HBP for the individual amino acids [1]: 1

H-HGEGSFSDELSTILESLAAADFIAWLIATKITD-NH2 [ZP2267]
EC50 (hGLP-2 receptor [2]): 0.0135 nM
Colon-BW, compared to 1559 in % (male C57BL mice): 109.4%
Organ selectivity (FIG. 8, unselective compounds) (male C57BL mice): unselective for the small intestine, colon or stomach
SI-BW, compared to 1559 in % (male C57BL mice): 108.5%
Sto-BW, compared to 1559 in % (male C57BL mice): 85.9%
Sensitivity index Si/Colon (male C57BL mice): 0.99
Sensitivity index Stomach/Co (male C57BL mice): 0.79
Colon (male C57BL mice): 109 ± 4%
SI (% vs. [Gly2]GLP-2 (male C57BL mice): 108 ± 2%

NC(=O)C[C@H](N)C(=O)O [Asn]
HBP for the individual amino acids [1]: 3

CC(C)C[C@H](N)C(=O)O [Leu]
HBP for the individual amino acids [1]: 0

H-HGEGSFSDELKTILESLAAADFIEWLIQTKITD-NH2 [ZP2269]
EC50 (hGLP-2 receptor [2]): 0.0912 nM
Colon-BW, compared to 1559 in % (male C57BL mice): 94.7%
Organ selectivity (FIG. 8, unselective compounds) (male C57BL mice): unselective for the small intestine, colon or stomach
SI-BW, compared to 1559 in % (male C57BL mice): 97.4%
Sto-BW, compared to 1559 in % (male C57BL mice): 99.8%
Sensitivity index Si/Colon (male C57BL mice): 1.03
Sensitivity index Stomach/Co (male C57BL mice): 1.05
Colon (male C57BL mice): 95 ± 3%
SI (% vs. [Gly2]GLP-2 (male C57BL mice): 97 ± 2%

NCCCC[C@H](N)C(=O)O [Lys]
HBP for the individual amino acids [1]: 2

H-HGEGSFSDELSTILESLAASDFISWLISTKITD-NH2 [ZP2263]
pEC50 (CRE-luciferase reporter, BHK-21 cells transiently transfected with hGLP-2 receptor) (hGLP-2 receptor [3]): 10.8

H-HGEGSFSDELATILEALAAADFIAWLIATKITD-NH2 [ZP2264]
pEC50 (CRE-luciferase reporter, BHK-21 cells transiently transfected with hGLP-2 receptor) (hGLP-2 receptor [3]): 11.5

H-HGEGSFSDELETILEELAAEDFIEWLIETKITD-NH2 [ZP2266]
pEC50 (CRE-luciferase reporter, BHK-21 cells transiently transfected with hGLP-2 receptor) (hGLP-2 receptor [3]): 9.25

H-HGEGSFSDELSTILESLAAADFIAWLIATKITD-NH2 [ZP2267]
pEC50 (CRE-luciferase reporter, BHK-21 cells transiently transfected with hGLP-2 receptor) (hGLP-2 receptor [3]): 10.9

H-HGEGSFSDELATILEALAASDFISWLISTKITD-NH2 [ZP2268]
pEC50 (CRE-luciferase reporter, BHK-21 cells transiently transfected with hGLP-2 receptor) (hGLP-2 receptor [3]): 11.2

H-HGEGSFSDELKTILESLAAADFIEWLIQTKITD-NH2 [ZP2269]
pEC50 (CRE-luciferase reporter, BHK-21 cells transiently transfected with hGLP-2 receptor) (hGLP-2 receptor [3]): 10

H-HGEGSFSDELNTILESLAASDFISWLISTKITD-NH2 [ZP2270]
pEC50 (CRE-luciferase reporter, BHK-21 cells transiently transfected with hGLP-2 receptor) (hGLP-2 receptor [3]): 10.2

H-HGEGSFSDELATILESLAAADFISWLIATKITD-NH2 [ZP2272]
pEC50 (CRE-luciferase reporter, BHK-21 cells transiently transfected with hGLP-2 receptor) (hGLP-2 receptor [3]): 11.3

H-HGEGSFSSELSTILDALAARDFIAWLIATKITDK-OH [ZP2242]
pEC50 (CRE-luciferase reporter, BHK-21 cells transiently transfected with hGLP-2 receptor) (hGLP-2 receptor [3]): 12.4
